Target: T1, Rhodopsin kinase GRK7 (Homo sapiens, UniProt Q8WTQ7)
T1 sequence (Q8WTQ7 whole entry): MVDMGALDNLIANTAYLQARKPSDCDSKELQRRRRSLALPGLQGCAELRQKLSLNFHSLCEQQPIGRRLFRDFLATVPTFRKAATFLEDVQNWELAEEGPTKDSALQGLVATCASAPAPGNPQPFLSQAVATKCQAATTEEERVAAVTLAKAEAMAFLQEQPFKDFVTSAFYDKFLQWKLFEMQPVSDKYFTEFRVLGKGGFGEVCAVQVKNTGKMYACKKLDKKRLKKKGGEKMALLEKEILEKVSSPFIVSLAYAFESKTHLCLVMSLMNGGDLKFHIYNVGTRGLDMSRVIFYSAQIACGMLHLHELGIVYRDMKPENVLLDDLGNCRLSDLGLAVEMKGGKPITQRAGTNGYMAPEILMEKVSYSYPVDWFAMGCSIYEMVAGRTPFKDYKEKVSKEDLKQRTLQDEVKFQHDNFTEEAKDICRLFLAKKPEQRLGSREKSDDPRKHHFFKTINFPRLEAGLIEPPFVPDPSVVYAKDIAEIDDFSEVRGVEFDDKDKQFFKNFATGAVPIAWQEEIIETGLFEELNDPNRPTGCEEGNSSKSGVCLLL
Assay: Inhibition of GRK7-mediated bovine tubulin phosphorylation by scintillation counting

`O=C(N[C@@H]1CNCCC[C@H]1OC(=O)c1cc(O)c(C(=O)c2c(O)cccc2C(=O)O)c(O)c1)c1ccc(O)cc1` [BALANOL] gave an IC50 of 180 nM.

Reference: ChEMBL document CHEMBL1154923 (J Med Chem, 2010)
